How the values were obtained:
[1] = tested on: SKMEL-188 human melanoma cells; assay: Proliferation (DNA synthesis) of SKMEL-188; assay type: cell-based; conditions: SKMEL-188, 72 h
Protocol: To measure DNA synthesis, keratinocytes, melanoma or prostate cancer cells were plated in 96-well plates. After overnight incubation tested compounds were added to the medium to achieve final concentrations 10^−7-10^−10 [M]. 100 μl of medium per well containing vitamin D3 compound was added to the cells. After 36 hours of incubation [3H]-thymidine (specific activity 88.0 Ci/mmol; Amersham Biosciences, Picataway, N.Y., USA) was added at 1 μCi/mL medium. After 12 hours, media were discarded, cells detached with trypsin and harvested on a glass fiber filter (Packard, Meriden, Calif., USA). 3H-radioactivity was measured with a beta counter (Direct Beta-Counter Matrix 9600; Packard).
HaCaT keratinocytes were an incubated for 48 h (FIG. 48A) or 72 h (FIG. 48B) in the presence of graded concentrations of 20(OH)D2 and/or 1,25(OH)2D3. […] Data are shown as mean±SD (n 3); *, p<0.05; **, p<0.01.

[2] = tested on: K562 human chronic myeloid leukemia cells; assay: Erythroid differentiation of K562 cells; assay type: cell-based; conditions: 10^-7 M, 7 days
Protocol: (§1) K562 human chronic myeloid leukemia (erythroleukemia) and MEL mouse erytholeukemia cells were cultured in RPMI 1640 containing 10% FBS and treated with the drugs at concentrations 0.1 μM. A 0.1% ethanol (EtOH) or 2% DMSO were used as negative or positive control, respectively to estimate the vehicle effect and the ability of the cells to differentiate. Media were exchanged every 72 h and drugs added every day. Growth of cultures was estimated by counting number of viable cells (trypan blue negative cells) as described previously.
To estimate erythroid differentiation (production of hemoglobin), first the number of benzidine positive cells was evaluated after 2 and 7 days in culture. Cells were centrifuged and washed four times with PBS and resuspended in 1 mL of fresh PBS. For hemoglobin determination, a benzidine staining solution was freshly prepared by mixing one part of 30% hydrogen peroxide, one part of base stock solution of 3% benzidine in 90% acetic acid, and 5 parts of water. The solution was diluted 1:10 with the cell suspension and aliquoted in 4 wells in 24-well plate (250 μl each). After 10 min of incubation at RT benzidine-positive cells were counted under the microscope with a minimum of 200 cells scored.
Second, to define spectrophotometrically relative content of hemoglobin, equal number of cells (7×106) were washed with cold PBS and lysed for 20 min in 100 μL of lysis buffer (0.2% Triton X-100 in […] potassium phosphate buffer, pH 7.8). The lysates were centrifuged for 15 min at 1500 r.p.m. and 100 μL of the supernatant was incubated with 2 mL of benzidine solution (5 mg/mL in glacial acetic acid) and 2 ml 30% H2O2 for 10 min increases in comparison with the level of hemoglobin in mock-induced K562 or MEL cells.

[3] = tested on: K562 human chronic myeloid leukemia cells; assay: Viable cell count, K562 cells; assay type: cell-based; conditions: 10^-7 M, 7 days
Protocol: as §1

[4] = tested on: human radial growth phase amelanotic melanoma WM35 cells; assay: Viability of WM35 melanoma cells; assay type: cell-based; conditions: WM35, 24 h
Protocol: Cells were seeded in 96-well plate and incubated with 20-hydroxycholecalciferol in DMEM medium containing 5% FBS for 48 h (FIG. 25A) or 72 h (FIG. 25C) or for 24 h after a 12 h synchronization in serum free medium (FIG. 25D). […] was added for a final 18 h (FIGS. 25A, 25D) or 12 h (FIG. 25C) of incubation or cells were assessed with sulforhodamine assay (FIG. 25C). Data is shown as mean±SEM (n=5; FIG. 24C) or mean±SEM (n=6; FIGS. 24A, 24C, 24D) and was analyzed using GraphPrism 4.0.

[5] = tested on: collagen-induced arthritis (CIA) in DBA/1 Lac J mice; assay: Type II collagen-induced arthritis (CIA) model; assay type: in vivo, mouse; conditions: i.p. every day at 2.5 μg/kg from day 14 post CII immunization
Source text: The CIA model in DBA/1 Lac J mice has been widely studied as a model with some features of human RA, and has served as a reliable model to study various mediators and therapies of autoimmune arthritis. The immunization of DBA/1 Lac J mice with native bovine CII in complete Freund's adjuvant (CFA) is followed 10-14 days later by the onset of arthritis in the distal extremities. […] The arthritis is characterized by acute, subacute and chronic inflammation that correlates with histologic changes in distal extremity joints that progressively worsens during the subsequent 10 to 40 day period. The arthritis is dependent on the generation of inflammatory mediators from activation of the complement cascade by anti-CII antibodies, the infiltration of neutrophils, monocytes and T cells into the joint resulting in liberation of inflammatory cytokines and various proteases (42).
Twenty-four DBA/1 Lac J female mice 6 wks old were immunized with bovine CII in CFA. […] Arthritis severity was assessed every 3-4 days by two observers and each paw was given a score of 0=no swelling; 1=slight swelling and redness; 2=moderate swelling and redness; 3=marked swelling and redness; and 4=marked swelling and redness with deformity. […]

[6] = tested on: bleomycin-induced scleroderma in C57BL/6 mice; assay: Bleomycin-induced scleroderma in mice; assay type: in vivo, mouse
Protocol: […] The skin was injected S.C. with 20(OH)D3 or vehicle daily within the same 1.5 cm^2 area. On day 22, all mice were euthanized and skin in the shaved area of the back was treated with a depilatory agent after which a biopsy of 1 cm circumference encompassing the S.C. injection site was taken to a depth to include the full thickness of the dermis. The skin samples from 5 randomly selected mice from each group were weighed and snap frozen in liquid nitrogen. Later, the skin samples were thawed and treated overnight with pepsin (0.1 mg/ml) of 0.5 M acetic acid at 4° C. with constant rocking to remove terminal non-helical telopeptides to release the collagen into solution. Total solubilized collagen was quantitative using a Sircol Collagen Assay kit using type I bovine collagen to obtain a standard curve. The collagen content of the skin samples was expressed as μg of collagen per mg tissue weight. Results for the groups were expressed as mean±SEM and analyzed by one way ANOVA with p values<0.05 considered to be statistically significant.

SMILES: C=C1/C(=C\C=C2/CCC[C@]3(C)[C@@H]([C@H](C)CCCC(C)(C)O)CC[C@@H]23)C[C@@H](O)C[C@@H]1O [1α,25-dihydroxycholecalciferol, (5Z,7E)-9,10-secocholesta-5,7,10(19)-triene-1α,3β,25-triol, reference compound]
- proliferation [1]: Dose dependent inhibition of the proliferation

SMILES: C=C1CC[C@H](O)C/C1=C/C=C1\CCC[C@]2(C)[C@@H](C(C)=O)CC[C@@H]12 [pD3, (5Z,7E)-3β-hydroxy-9,10-secopregna-5,7,10(19)-trien-20-one]
- differentiation of K562 cells [2]: induce differentiation
- proliferation of K562 cells [3]: inhibit proliferation

SMILES: C=C1CC[C@H](O)C/C1=C/C=C1\CCC[C@@]2(C)[C@H]1CC[C@@H]2[C@@](C)(O)CCCC(C)C [20(OH)D3, (5Z,7E)-9,10-secocholesta-5,7,10(19)-triene-3β,20-diol]
- concentration above which viability started declining [4]: greater than 1×10^−7 M
- arthritis severity (CIA) [5]: suppresses CIA
- bleomycin-induced increase of total skin collagen ([6]; 3 μg/kg daily dose, 21 days): prevented
- body weight less than the vehicle control group ([6]; bleomycin + 20(OH)D3, 21 days): 13.6%

— patent US20120258938A1, “Enzymatic Production or Chemical Synthesis and Uses for 5,7-Dienes and UVB Conversion Products Thereof” (priority 2008, published 2012)
